Laboratory results from a compilation of properties of binary mixtures (doi:10.1016/j.molliq.2022.120052).

Assay: xn = mol fraction of the nth substance listed
Settings: 100 kPa

C[n+]1ccn(CCCC#N)c1.O=S(=O)([O-])C(F)(F)F + O=C1CCCO1
electrical conductivity [S/m]
Settings | x1 = 0.1003 | x1 = 0.2001 | x1 = 0.3003 | x1 = 0.3999 | x1 = 0.4999 | x1 = 0.6002 | x1 = 0.7001 | x1 = 0.8002 | x1 = 0.9004 | x1 = 1
288.15 K | 0.725 | 0.798 | – | 0.353 | 0.261 | – | 0.118 | 0.084 | 0.05 | –
293.15 K | 0.834 | 0.906 | 0.623 | 0.434 | 0.318 | 0.232 | 0.156 | 0.11 | – | 0.034
298.15 K | 0.95 | 1.02 | 0.726 | 0.521 | 0.385 | 0.283 | 0.201 | 0.142 | – | 0.048
303.15 K | 1.07 | 1.14 | 0.835 | 0.617 | – | 0.341 | 0.252 | – | – | 0.064
308.15 K | 1.2 | 1.26 | 0.951 | 0.718 | 0.539 | – | 0.309 | 0.221 | 0.153 | –
313.15 K | 1.33 | 1.4 | – | 0.83 | 0.625 | – | – | 0.269 | 0.19 | 0.106
318.15 K | 1.48 | 1.53 | 1.21 | 0.947 | 0.721 | 0.554 | 0.441 | – | – | –
323.15 K | 1.61 | 1.68 | – | 1.07 | 0.821 | 0.642 | 0.513 | – | – | –
328.15 K | 1.76 | 1.83 | 1.49 | 1.2 | 0.927 | 0.733 | 0.592 | 0.449 | 0.333 | 0.205
333.15 K | 1.91 | 1.98 | 1.64 | – | 1.04 | 0.832 | 0.675 | 0.52 | 0.392 | 0.25
338.15 K | 2.07 | 2.14 | – | 1.46 | 1.17 | 0.945 | 0.761 | 0.596 | 0.454 | –
343.15 K | 2.22 | 2.3 | 1.95 | 1.6 | 1.29 | 1.05 | – | 0.677 | 0.519 | 0.355
